Measurements as given in ChEMBL document CHEMBL1201862, “PubChem BioAssay data set” (2004).
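Method: 48-hour compound exposure of cells in 96-well plates, five concentrations, linear interpolation of endpoints. GI50 is the concentration that inhibits growth by half.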 Activity calls are given as the source filed them. No stated cut-off is given here; in the data, active = GI50 up to about 1.1 µM and inactive = higher. Bridge positions count the residues as written; N and C are the ends. Where a SMILES comes first, the peptide text is derived from it. Square brackets hold non-standard residues; d marks the D form. Peptide text beside a SMILES is read from it. I, II: the chains in the order shown. The star is where a group is joined. * marks the point of attachment. Quinoxaline2carbonyl = O=C(c1cnc2ccccc2n1)*; NMeV = CN[CH](C(=O)O)C(C)C; NMeC = CN[CH](CS)C(=O)O; Boc = CC(C)(C)OC(=O)*; nBu = CCCC*

What was measured:
Assay in all cases: NCI anticancer screen, dose series, 48 h
MDA-N = test system: MDA-N
DU-145 = test system: DU-145
T47D = test system: T47D
M19-MEL = test system: M19-MEL
DMS-114 = test system: DMS-114
DLD-1 = test system: DLD-1
LXFL 529 = test system: LXFL 529
DMS-273 = test system: DMS-273

SMILES | GI50 (MDA-N) | GI50 (DU-145) | GI50 (T47D) | other results
C(=N\c1ccc(-c2cc(-c3ccccc3)nc3ccc4ccccc4c23)cc1)/c1ccccc1 | 24.4 µM (inactive) | 20.7 µM (inactive) |  | 
C#CCCCC(=C)C[C@H](OCc1ccccc1)[C@H]1OC(=O)[C@@H]1C | 22.9 µM (inactive) |  |  | 
O=C1/C(=C/c2ccc(Cl)cc2)N=C(c2ccccc2)N1/N=C/c1ccccc1O | 69.5 µM (inactive) | 21 µM (inactive) | 6.27 µM (inactive) | 
COc1ccc(CCn2cnc3ccccc32)cc1 | > 100 µM (inactive) | > 100 µM (inactive) |  | 
CN(C)c1ccc(/C=C/C(=O)C(C)(C)C)cc1Br |  |  |  | GI50 (M19-MEL): 19.8 µM (inactive); GI50 (DMS-114): 18.5 µM (inactive); GI50 (DLD-1): 18.7 µM (inactive); GI50 (LXFL 529): 30 µM (inactive)
COc1ccc(CC2Cc3ccccc3CCN2)cc1OC (stereo not drawn) | > 50 µM (inactive) | > 50 µM (inactive) | 46.5 µM (inactive) | 
Nc1ccc(OCC(O)N2C(=O)c3ccccc3C2=O)cc1 (stereo not drawn) | > 100 µM (inactive) | > 100 µM (inactive) | > 100 µM (inactive) | 
COC(=O)Nc1nc2ccc(S(=O)(=O)SC)cc2[nH]1 |  | 6.05 µM (inactive) | 9.55 µM (inactive) | 
CC(C)(C)OC(=O)N1CCCC1C(=O)NC(c1ccccc1)c1ccccc1 (stereo not drawn) | > 100 µM (inactive) | > 100 µM (inactive) | > 100 µM (inactive) | 
O=C1C(S(=O)(=O)c2ccccc2)=C(CS(=O)(=O)c2ccccc2)[C@@H](OCc2ccccc2)[C@@H]1OCc1ccccc1 | 23 µM (inactive) | 35.2 µM (inactive) | 32.7 µM (inactive) | 
COc1ccc(C(=O)Oc2c(C#N)sc3c2c(=O)n(-c2ccccc2)c(=S)n3-c2ccccc2)cc1 | > 10 µM (inactive) | 33 µM (inactive) | 33.6 µM (inactive) | 
C=C(CC[C@@H](C)[C@H]1CC[C@@]2(C)C3=C(CC[C@]12C)[C@@]1(C)CC[C@H](O)[C@@H](C)C1CC3)C(C)C (stereo partly drawn) | 1.17 µM (inactive) |  |  | 
CO/C=C(/C(=O)OC)[C@@H]1C[C@@H]1c1ccc2ccccc2c1 | 20.4 µM (inactive) | 38.9 µM (inactive) | 20.9 µM (inactive) | 
O=C(/C=C/c1cccs1)c1ccc(C(=O)/C=C/c2cccs2)cc1 |  | > 100 µM (inactive) | > 100 µM (inactive) | 
Cc1ccc(SCC(CF)OC(C)n2cnc3c(O)nc(N)nc32)cc1 (stereo not drawn) | > 100 µM (inactive) | > 100 µM (inactive) | 49.1 µM (inactive) | 
COC(=O)[C@@H](Nc1ccccc1)[C@@]1(C(=O)OC)SC12c1ccccc1-c1ccccc12 | 61.1 µM (inactive) | > 100 µM (inactive) | 25.5 µM (inactive) | 
CN(NC(=O)c1ccc(Cl)cc1)C1=NCCCCN1 | > 100 µM (inactive) |  | > 100 µM (inactive) | 
COC(=O)C1(C)OC(C)=NC1(C(=O)OC)C(=O)OC (stereo not drawn) | > 100 µM (inactive) | > 100 µM (inactive) | > 100 µM (inactive) | 
COCCOCCOCCOc1ccc(C(C#N)N(CCc2ccccc2)C(=O)c2cc(C(=O)N(CCc3ccccc3)C(C#N)c3ccc(OCCOCCOCCOC)cc3)cc(C(=O)N(CCc3ccccc3)C(C#N)c3ccc(OCCOCCOCCOC)cc3)c2)cc1 (stereo not drawn) | > 100 µM (inactive) | > 100 µM (inactive) | > 100 µM (inactive) | 
CCN1CCCCCCCCCC(=N/O)/C(=N\O)C1 | > 100 µM (inactive) | > 100 µM (inactive) | > 100 µM (inactive) | 
NC(=O)Cc1nc2c(N)ncnc2n1C1OC(CO)C(O)C1O (stereo not drawn) | > 100 µM (inactive) | > 100 µM (inactive) | > 100 µM (inactive) | 
COC(=O)C1=C(C)N2CCCOC2(C)C(C(=O)OC)C1c1cccc(Cl)c1 (stereo not drawn) |  |  |  | GI50 (M19-MEL): 20.6 µM (inactive); GI50 (DMS-114): 19.1 µM (inactive); GI50 (LXFL 529): 20 µM (inactive)

SMILES | GI50 (MDA-N) | GI50 (DU-145) | GI50 (T47D) | other results
NC(Cc1cccc([N+](=O)[O-])c1)C(=O)O (stereo not drawn) | > 100 µM (inactive) | > 100 µM (inactive) | > 100 µM (inactive) | 
CCN(CC)Cc1sc2nc3ccccc3n2c1-c1ccc(OC)cc1 | 2.61 µM (inactive) | 35.4 µM (inactive) |  | 
CC1(C)CCCOc2cccc(c2)OCCCC(C)(C)C1=O | 45.2 µM (inactive) | 85.3 µM (inactive) | 31.8 µM (inactive) | 
COCCOCCOC1=C(Cl)C(=O)c2c(O)ccc(O)c2C1=O | 5.02 µM (inactive) | 9.31 µM (inactive) | 2.54 µM (inactive) | 
C1=CN2C[n+]3ccc4ccccc4c3N=C2c2ccccc21 | 2.26 µM (inactive) | 6.62 µM (inactive) | 0.671 µM (active) | 
CC[C@@]1(N(C)C)C(=O)OCc2c1cc1n(c2=O)Cc2cc3ccccc3nc2-1 |  | 21.1 µM (inactive) | 18.9 µM (inactive) | 
OC1=C(c2ccccc2)C2=NCCN2c2ccccc21 | 41.2 µM (inactive) | 84.1 µM (inactive) | > 100 µM (inactive) | 
CC1(C)OCC(C2OC3OC(C)(C)OC3C2c2ccccc2)O1 (stereo not drawn) | 37 µM (inactive) | 45.6 µM (inactive) | 38.2 µM (inactive) | 
ClC1CCC2OOC1O2 (stereo not drawn) |  |  |  | GI50 (M19-MEL): > 100 µM (inactive); GI50 (DMS-114): 43.7 µM (inactive); GI50 (DMS-273): > 100 µM (inactive)
O=c1[nH]nc(Cc2ccccc2)n1/N=C/c1ccc([N+](=O)[O-])cc1 | > 100 µM (inactive) | > 100 µM (inactive) | > 100 µM (inactive) | 
COc1ccc(-c2ccc(CC(=O)O)cc2)cc1OC |  |  |  | GI50 (M19-MEL): > 100 µM (inactive); GI50 (DMS-114): > 100 µM (inactive); GI50 (DLD-1): > 100 µM (inactive); GI50 (LXFL 529): > 100 µM (inactive)
C/C(=C1\C(=O)C(c2ccccc2)N(c2ccccc2)C1=O)c1ccc(Cl)cc1 (stereo not drawn) | 19.7 µM (inactive) | 18.7 µM (inactive) | 19.4 µM (inactive) | 
CN1CCC[N+](C)=C1c1ccccc1 | > 100 µM (inactive) | > 100 µM (inactive) | > 100 µM (inactive) | 
CC(=O)On1c(-c2ccccc2-c2nc3ccccc3n2OC(C)=O)nc2ccccc21 | 21 µM (inactive) | 49.7 µM (inactive) | 17.7 µM (inactive) | 
CC(C)C1=CC23CCC4C(C)(C(=O)O)CCCC4(C)C2CC1C1C(=O)N(CCCCCCN2C(=O)C4C5CC6C7(C)CCCC(C)(C(=O)O)C7CCC6(C=C5C(C)C)C4C2=O)C(=O)C13 (stereo not drawn) | 11.1 µM (inactive) | > 10 µM (inactive) | 21.1 µM (inactive) | 
C[Si](C)(OCCS(=O)(=O)O)C1S(=O)(=O)OCCOS1(=O)=O | 92 µM (inactive) | 80.9 µM (inactive) | 36.6 µM (inactive) | 
CC(=O)C1C(=O)C(=O)N(c2ccc(Cl)c(Cl)c2)C1=O (stereo not drawn) | > 100 µM (inactive) | > 100 µM (inactive) | > 100 µM (inactive) | 
COC1C(O)C(C)OC(O[C@@H]2C[C@H]3CC[C@@H]4[C@H](CC[C@]5(C)[C@@H](C6=CC(=O)OC6)CC[C@]45O)[C@@]3(C)[C@H](O)C2)C1O (stereo partly drawn) | 0.0166 µM (active) | < 0.0302 µM (active) | 0.111 µM (active) | 
CN(Cc1cnc2nc(N)nc(N)c2n1)c1ccc(C(=O)NC(CCC(=O)O)C(=O)O)cc1 (stereo not drawn) |  | 0.0154 µM (active) |  | 
CCCCOc1ccc(CC(NC(=O)OC(C)(C)C)C(=O)NC(C)C(=O)NC(Cc2ccccc2)C(=O)NCC(N)=O)cc1 (stereo not drawn) (Boc-Y(nBu)AFG-NH2; configuration not given here) | 61.9 µM (inactive) | > 100 µM (inactive) | > 100 µM (inactive) | 
CC1NC(=O)C(NC(=O)c2cnc3ccccc3n2)COC(=O)C(C(C)C)N(C)C(=O)C2CSSCC(C(=O)N(C)C(C(C)C)C(=O)OCC(NC(=O)c3cnc4ccccc4n3)C(=O)NC(C)C(=O)N2C)N(C)C1=O (stereo not drawn) (I: Quinoxaline2carbonyl-SA[NMeC][NMeV] / II: Quinoxaline2carbonyl-SA[NMeC][NMeV]; ester I:1-II:C, I:C-II:1; disulfide I:3-II:3; configuration not given here) | < 0.01 µM (active) | < 0.01 µM (active) | < 0.01 µM (active) | 
